The values that follow come from ChEMBL document CHEMBL3727356, “Therapeutic compounds and compositions” (2014).

Assay [1] has as its target Pyruvate kinase PKLR (Homo sapiens, UniProt P30613, R532W). Put plainly: Activation of PKR R532W mutant (unknown origin) incubated for 60 mins in presence of ADP, PEP and NADH by Spectraax microplate reader based assay.
In assay [2] the target is T1, Pyruvate kinase PKLR (Homo sapiens, UniProt P30613). Nature of the assay: Activation of wild type PKR (unknown origin) incubated for 60 mins in presence of ADP, PEP and NADH by Spectraax microplate reader based assay.
T1 sequence (P30613 whole entry): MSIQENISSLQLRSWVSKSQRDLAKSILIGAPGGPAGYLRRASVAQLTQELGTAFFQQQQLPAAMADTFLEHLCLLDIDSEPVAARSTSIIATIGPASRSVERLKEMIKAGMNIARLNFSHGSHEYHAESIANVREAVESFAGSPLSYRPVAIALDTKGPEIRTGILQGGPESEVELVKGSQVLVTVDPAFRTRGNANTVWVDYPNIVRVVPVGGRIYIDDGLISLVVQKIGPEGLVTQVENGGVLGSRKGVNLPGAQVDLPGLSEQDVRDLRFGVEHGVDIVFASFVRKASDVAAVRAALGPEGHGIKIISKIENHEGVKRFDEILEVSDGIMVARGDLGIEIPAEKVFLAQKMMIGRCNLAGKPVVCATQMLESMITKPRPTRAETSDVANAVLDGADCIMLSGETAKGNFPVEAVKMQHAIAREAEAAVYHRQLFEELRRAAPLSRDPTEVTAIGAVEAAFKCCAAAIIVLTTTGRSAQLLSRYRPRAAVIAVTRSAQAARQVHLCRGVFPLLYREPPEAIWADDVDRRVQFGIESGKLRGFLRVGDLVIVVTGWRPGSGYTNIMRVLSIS
Assay [3] has as its target T1, Pyruvate kinase PKLR. Put plainly: Activation of wild type PKR (unknown origin) by cell based assay.

Pyruvate kinase PKLR (Homo sapiens, UniProt P30613, R532W), sequence (P30613 whole entry R532W): as the sequence (P30613 whole entry) above, with R532W counted along it

Take `O=C(c1ccc(NS(=O)(=O)c2cccc3cccnc23)cc1)N1CCC(O)(c2ccncc2)CC1`: the AC50 in assay [1], in assay [2] and in assay [3] was under 100 nM in each case.

For the compound `COc1cccc(CC2(O)CCN(C(=O)c3ccc(NS(=O)(=O)c4cccc5cccnc45)cc3)CC2)c1`, the AC50 in assay [1], in assay [2] and in assay [3] was under 100 nM each time.

Turning to `O=C(c1ccc(NS(=O)(=O)c2cccc3scnc23)cc1)N1CCC(O)(c2cccc(F)c2F)CC1`, the AC50 in assay [1], in assay [2] and in assay [3] was under 100 nM each time.

On to `O=C(c1ccc(NS(=O)(=O)c2cccc3cccnc23)cc1)N1CCC(O)(c2ccccc2)CC1`, for which the AC50 in assay [1], in assay [2] and in assay [3] was under 100 nM each time.

`Cc1nc2c(S(=O)(=O)Nc3ccc(C(=O)N4CCC(O)(c5ccccc5Cl)CC4)cc3)cccc2o1`: the AC50 in assay [1], in assay [2] and in assay [3] was under 100 nM in each case.

Turning to `O=C(c1ccc(NS(=O)(=O)c2cccc3cccnc23)cc1Cl)N1CCC(O)(c2ccccc2Cl)CC1`, the AC50 in assay [1], in assay [2] and in assay [3] was under 100 nM in each case.

For the compound `O=C(c1ccc(NS(=O)(=O)c2cccc3cccnc23)cc1)N1CCC(O)(Cc2cccnc2F)CC1`, the AC50 in assay [1], in assay [2] and in assay [3] was under 100 nM each time.

Consider `Cc1cccc(CC2(O)CCN(C(=O)c3ccc(NS(=O)(=O)c4cccc5cccnc45)cc3)CC2)c1`, for which the AC50 in assay [1], in assay [2] and in assay [3] was under 100 nM throughout.

Regarding `O=C(c1ccc(NS(=O)(=O)c2cccc3nccnc23)cc1)N1CCC(O)(c2sncc2Cl)CC1`, the AC50 in assay [3] was under 100 nM.

Consider `O=C(c1ccc(NS(=O)(=O)c2cccc3cccnc23)cc1)N1CCC(O)(c2ncccc2Cl)CC1`, for which the AC50 in assay [1], in assay [2] and in assay [3] was under 100 nM in each case.

As to `Cc1noc(C)c1CC1(O)CCN(C(=O)c2ccc(NS(=O)(=O)c3cccc4nccnc34)cc2)CC1`, the AC50 in assay [1], in assay [2] and in assay [3] was under 100 nM in each case.

In turn, `CC(C)CC1(OC(=O)OCOP(=O)(O)O)CCN(C(=O)c2ccc(NS(=O)(=O)c3cccc4nccnc34)cc2)CC1` registered an AC50 in assay [3] of under 100 nM.

In the case of `O=C(c1ccc(NS(=O)(=O)c2cccc3nccnc23)cc1)N1CCC(O)(c2ccccc2Cl)CC1`, the AC50 in assay [1], in assay [2] and in assay [3] was under 100 nM throughout.

`O=C(c1ccc(NS(=O)(=O)c2cccc3cccnc23)cc1)N1CCC(O)(c2ccncc2Cl)CC1`: the AC50 in assay [1], in assay [2] and in assay [3] was under 100 nM in each case.

Regarding `Nc1c(O)cccc1S(=O)(=O)Nc1ccc(C(=O)N2CCC(O)(c3ccccc3Cl)CC2)cc1`, the AC50 in assay [2] and in assay [3] was under 100 nM in each case.

For the compound `CC(C)(C)C1(O)CCN(C(=O)c2ccc(NS(=O)(=O)c3cccc4cccnc34)cc2)CC1`, the AC50 in assay [1], in assay [2] and in assay [3] was under 100 nM in each case.

Turning to `O=C(c1ccc(NS(=O)(=O)c2cccc3cccnc23)cc1)N1CCC(O)(CCC(F)F)CC1`, the AC50 in assay [1], in assay [2] and in assay [3] was under 100 nM throughout.

With `O=C(c1ccc(NS(=O)(=O)c2cccc3cccnc23)cc1)N1CCC(O)(c2cccc(F)c2)CC1`, the AC50 in assay [1], in assay [2] and in assay [3] was under 100 nM each time.

`O=C(c1ccc(NS(=O)(=O)c2ccc(F)c3cccnc23)cc1)N1CCC(O)(c2ccccc2Cl)CC1`: the AC50 in assay [1], in assay [2] and in assay [3] was under 100 nM throughout.

For the compound `O=C(c1ccc(NS(=O)(=O)c2cccc3nccnc23)cc1)N1CCC(O)(c2ccccc2)CC1`, in assay [3], the AC50 was under 100 nM.

In the case of `O=C(c1ccc(NS(=O)(=O)c2cccc3cccnc23)cc1)N1CCC(CO)(Cc2ccccc2)CC1`, the AC50 in assay [1], in assay [2] and in assay [3] was under 100 nM each time.

As for `CC(C)CC1(O)CCN(C(=O)c2ccc(NS(=O)(=O)c3cccc4c3OCO4)cc2)CC1`, the AC50 in assay [1], in assay [2] and in assay [3] was under 100 nM in each case.

In the case of `CC(C)C1(O)CCN(C(=O)c2ccc(NS(=O)(=O)c3cccc4cccnc34)cc2)CC1`, the AC50 in assay [1], in assay [2] and in assay [3] was under 100 nM in each case.

Take `O=C(c1ccc(NS(=O)(=O)c2cccc3cccnc23)cc1)N1CCC(O)(c2ncccc2C(F)(F)F)CC1`: the AC50 in assay [1], in assay [2] and in assay [3] was under 100 nM in each case.

Turning to `Cn1cc(C2(O)CCN(C(=O)c3ccc(NS(=O)(=O)c4cccc5scnc45)cc3)CC2)cn1`, the AC50 in assay [1] and in assay [3] was under 100 nM in each case.

As for `Cc1cc(NS(=O)(=O)c2cccc3cccnc23)ccc1C(=O)N1CCC(O)(c2ccccc2Cl)CC1`, the AC50 in assay [1], in assay [2] and in assay [3] was under 100 nM throughout.

Turning to `O=C(c1ccc(NS(=O)(=O)c2cccc3cccnc23)cc1)N1CCC(O)(c2ccccc2O)CC1`, the AC50 in assay [1] and in assay [3] was under 100 nM throughout.

For the compound `CS(=O)(=O)c1cccc(C2(O)CCN(C(=O)c3ccc(NS(=O)(=O)c4cccc5cccnc45)cc3)CC2)c1`, the AC50 in assay [2] and in assay [3] was under 100 nM each time.

In the case of `O=C(c1ccc(NS(=O)(=O)c2cccc3cccnc23)cc1F)N1CCC(O)(c2ccccc2Cl)CC1`, the AC50 in assay [1], in assay [2] and in assay [3] was under 100 nM throughout.

For the compound `O=C(c1ccc(NS(=O)(=O)c2cccc3cccnc23)cc1)N1CCC(O)(CC2CC2(F)F)CC1` (stereo not given), the AC50 in assay [1], in assay [2] and in assay [3] was under 100 nM each time.

Consider `CC(C)CC1(O)CCN(C(=O)c2ccc(NS(=O)(=O)c3cccc4nccnc34)cc2OC(F)F)CC1`, for which the AC50 in assay [1], in assay [2] and in assay [3] was under 100 nM throughout.

As to `O=C(c1ccc(NS(=O)(=O)c2cccc3scnc23)cc1)N1CCC(O)(c2sncc2Cl)CC1`, the AC50 in assay [1], in assay [2] and in assay [3] was under 100 nM in each case.

Regarding `O=C(c1ccc(NS(=O)(=O)c2cccc3cccnc23)c(F)c1)N1CCC(O)(Cc2ccccc2)CC1`, the AC50 in assay [1], in assay [2] and in assay [3] was under 100 nM in each case.

Consider `O=C(c1ccc(NS(=O)(=O)c2cccc3scnc23)cc1)N1CCC(O)(CC2CCC2)CC1`, for which the AC50 in assay [1], in assay [2] and in assay [3] was under 100 nM throughout.

Regarding `O=C(c1ccc(NS(=O)(=O)c2cccc3cccnc23)cc1)N1CCC(O)(c2ccccc2F)CC1`, the AC50 in assay [1], in assay [2] and in assay [3] was under 100 nM in each case.

As for `CC(F)(F)CCC1(O)CCN(C(=O)c2ccc(NS(=O)(=O)c3cccc4scnc34)cc2OC(F)F)CC1`, the AC50 in assay [1] and in assay [2] was under 100 nM each time.

On to `O=C(c1ccc(NS(=O)(=O)c2cccc3nccnc23)cc1)N1CCC(O)(Cc2cn[nH]c2)CC1`, for which the AC50 in assay [1] and in assay [2] was under 100 nM each time.

In the case of `CC(F)(F)CCC1(O)CCN(C(=O)c2ccc(NS(=O)(=O)c3cccc4scnc34)cc2)CC1`, the AC50 in assay [1] and in assay [2] was under 100 nM in each case.

Take `O=C(c1ccc(NS(=O)(=O)c2cccc3ccccc23)cc1)N1CCC(O)(c2ccccc2Cl)CC1`: the AC50 in assay [1] and in assay [2] was under 100 nM each time.

Regarding `Cc1cc(C2(O)CCN(C(=O)c3ccc(NS(=O)(=O)c4cccc5nccnc45)cc3)CC2)sn1`, the half-maximal activity concentration (AC50) in assay [1] and in assay [2] was under 100 nM in each case.

Turning to `CC(C)(F)CC1(O)CCN(C(=O)c2ccc(NS(=O)(=O)c3cccc4scnc34)cc2)CC1`, the AC50 in assay [1] and in assay [3] was under 100 nM each time.

Consider `Cc1cc(CC2(O)CCN(C(=O)c3ccc(NS(=O)(=O)c4cccc5nccnc45)cc3)CC2)sn1`, for which the AC50 in assay [1] and in assay [2] was under 100 nM in each case.

As for `CC(C)CC1(O)CCN(C(=O)c2ccc(NS(=O)(=O)c3cc(F)cc4scnc34)cc2)CC1`, the AC50 in assay [1] and in assay [2] was under 100 nM throughout.

With `O=C(c1ccc(NS(=O)(=O)c2cccc3nccnc23)cc1)N1CCC(O)(CCC(F)(F)F)CC1`, the AC50 in assay [1] and in assay [2] was under 100 nM throughout.

`CC(C)CC1(OC(=O)OCOP(=O)(O)O)CCN(C(=O)c2ccc(NS(=O)(=O)c3cccc4scnc34)cc2)CC1` returned an AC50 in assay [3] of under 100 nM.

Take `O=C(c1ccc(NS(=O)(=O)c2cccc3cccnc23)c2ccccc12)N1CCC(O)(c2ccccc2Cl)CC1`: the AC50 in assay [1] and in assay [2] was under 100 nM each time.

Take `O=C(c1ccc(NS(=O)(=O)c2ccc(F)c3cccnc23)cc1)N1CCC(O)(Cc2ccccc2C(F)(F)F)CC1`: the AC50 in assay [1] and in assay [2] was under 100 nM each time.

For `O=C(c1ccc(NS(=O)(=O)c2ccc(F)c3cccnc23)cc1)N1CCC(O)(CC2CCC2)CC1`, the AC50 in assay [1] and in assay [2] was under 100 nM each time.

Turning to `Cc1cc(C2(O)CCN(C(=O)c3ccc(NS(=O)(=O)c4cccc5scnc45)cc3)CC2)sn1`, the AC50 in assay [1] and in assay [2] was under 100 nM each time.

For the compound `CC(F)(F)CCC1(O)CCN(C(=O)c2ccc(NS(=O)(=O)c3cccc4nccnc34)cc2)CC1`, the AC50 in assay [2] and in assay [3] was under 100 nM throughout.

As to `O=C(c1ccc(NS(=O)(=O)c2ccc(C(F)(F)F)cc2)cc1)N1CCC(O)(Cc2ccccc2)CC1`, the AC50 in assay [1] and in assay [2] was over 10000 nM in each case.

As to `Cc1n[nH]c(C)c1CC1(O)CCN(C(=O)c2ccc(NS(=O)(=O)c3cccc4scnc34)cc2)CC1`, the AC50 in assay [1] and in assay [2] was under 100 nM in each case.

`CC(C)CC1(O)CCN(C(=O)c2ccc(NS(=O)(=O)c3cccc(O)c3N)cc2)CC1`: the AC50 in assay [2] and in assay [3] was under 100 nM in each case.

The AC50 is the concentration giving half of the maximal activity seen.
